Results published in PMC9785606, “Design and Synthesis of Novel Phenylahistin Derivatives Based on Co-Crystal Structures as Potent Microtubule Inhibitors for Anti-Cancer Therapy” (Marine Drugs, 2022).
Marks after values point to notes of the source that are not given here.

Experiments:
[1] = tested on: human lung cancer NCI-H460 cell line; test: MTT cytotoxicity assay, lung cancer NCI-H460 cell line; type: cell-based; conditions: Homo sapiens, NCI-H460, 72 h, mean ± SD
Experimental: (§1) Human cancer cell lines (lung cancer NCI-H460 cell line, pancreatic cancer BxPC-3 cell line, colon cancer HT-29 cell line) were purchased from American Type Cell Culture Collection (ATCC, Manassas, VA, USA). Cells were maintained in RPMI-1640 medium supplemented with 10% (v/v) heat-inactivated fetal bovine serum, penicillin-streptomycin (100 U/mL-100 […]) at 37 °C in a humidified atmosphere (5% CO2–95% air). All tested derivatives were dissolved in 100% cell culture grade DMSO. Cells (3 × 10^3 per well) were seeded in 96-well plates for 24 h. Then, cells were treated with the tested compounds in six concentrations for 72 h. Cell viability was assessed by MTT assay. The absorbance at 490 nm was measured with a Microplate Reader (Molecular Devices, Silicon Valley, CA, USA). The data were analyzed by Origin 8.5 (OriginLab, Northampton, MA, USA).

[2] = tested on: pancreatic cancer BxPC-3 cell line; test: MTT cytotoxicity assay, pancreatic cancer BxPC-3 cell line; type: cell-based; conditions: Homo sapiens, 72 h, mean ± SD
Experimental: as §1

[3] = tested on: colon cancer HT-29 cell line; test: MTT cytotoxicity assay, colon cancer HT-29 cell line; type: cell-based; conditions: Homo sapiens, 72 h, mean ± SD
Experimental: as §1

[4] = Plasma stability in vitro; type: in vitro ADME, wistar rats; conditions: 10 μmol/L, 37 °C, up to 120 min
Experimental: Compounds 15p. 15p were weighed and dissolved in DMSO to prepare a master batch with a concentration of 1 mg/mL. The plasma was obtained from wistar male rats, and stored at −20 °C for pending use. The 10 μmol/L of the sample solution to be tested was vortexed and mixed, and rapidly incubated in a 37 °C water bath shaker. The 100 μL of the incubation system was removed at 0 min, 5 min, 10 min, 20 min, 40 min, 60 min, 90 min, and 120 min of the reaction, respectively. The remaining amount of compound was detected (note: each sample was operated three times in parallel). The concentrations of the samples to be measured (15p) in rat plasma were detected by HPLC-MS/MS, and the experimental data were processed and plotted using the computer programs Microsoft Excel (Microsoft 97–2003, Redmond, Washington, DC, USA) and Origin 8.5 (OriginLab, Northampton, MA, USA).

[5] = Stability of liver microsomal metabolism; type: in vitro ADME, rat; conditions: 37 °C
Experimental: The total volume of the incubation system is 1 mL, which contains 1 mmol/L NADPH, 0.5 mg/mL rat liver microsomes, 1 μmol/L 15p standard solution, which was supplemented with K2HPO4 buffer to 1 mL. The solution should be added to the incubation system. The incubation system was rapidly incubated in a water bath shaker at 37 °C for 5 min before adding 200 μL of 5 mmol/L NADPH. The 50 μL of the incubation system was quickly removed at 0, 5, 10, 20, 40, 60, 90, 120, 150, 210, and 270 min. The concentrations of the samples to be measured (15p) in rat liver microsomes were measured by HPLC-MS/MS. Each sample was operated on three times in parallel. The experimental data were processed and plotted using the computer programs Microsoft Excel (97–2003) and Origin 7.5 software.

[6] = tested on: H22 hepatoma carcinoma cells transplanted tumor; test: H22 subcutaneous transplanted tumor model, intravenous administration; conditions: for Tumor Volume (D15): 14 consecutive days; for Tumor Volume (D1): D1 (baseline), mean ± SD; for Tumor Weight: excised at end of administration; for IR (tumor weight inhibition rate): IR = (1 − TWt/TWc) × 100%
Experimental: The anticancer effect of the compound 15p was further evaluated against H22 tumor-bearing mice models by intravenous injection at doses of 2 mg/kg, or 4 mg/kg, two or three times a week, and for 14 consecutive days. Docetaxel (10 mg/kg), plinabulin (4 mg/kg), and cyclophosphamide (20 mg/kg) were used as the positive controls.
Balb/c mice (4–6 weeks old, 16–18 g) were purchased from Shanghai Sippr-BK laboratory animal Co. Ltd. The animal study protocol was approved by Institutional Review Board of Science and Technology Division of Linyi University (review opinion on behalf of the Ethics Committee) (The protocol code is LYU20220107, provided on 10 March 2022). H22 cells were grown in RPMI-1640 midium supplemented with 10% fetal bovine serum, and maintained at 37 °C in humidified 5% CO2. Cells were passaged when they reached 70–80% confluence. Viable H22 cells (1 × 10^7 cells/0.2 ml 0.9% sodium chloride) were injected into the peritoneal cavity of BALB/C mice to trigger ascitic cell growth. Later, cells were harvested and suspended. H22 cancer cells (2 × 10^7 cells/0.1 ml 0.9% sodium chloride cells) were subcutaneously injected into the right flank of each mouse. After implantation, the tumor size was measured with an electronic caliper twice a week, and the tumor volume was calculated according to the following formula: tumor volume (mm^3) = 0.5 × length × width^2. When the tumor volume reached about 130 mm^3, the xenograft tumor-bearing BALB/C mice were randomly placed into six groups at 10 mice per group: vehicle, plinabulin (4 mg/kg), 15p ([…]), 15p ([…]), cyclophosphamide (20 mg/kg) and docetaxel (10 mg/kg) groups. Docetaxel, plinabulin, and cyclophosphamide were chosen as positive control drug. The reference compound docetaxel and cyclophosphamide were completely dissolved in isotonic saline. […] The solution of compound 15p was diluted with the concentrated solution and in isotonic saline at a calculated ratio. The solutions of plinabulin were made up according to similar methods. The mice received intravenous administration (iv) every two or three days for consecutive 14 days. The tumor volumes and the body weights were recorded every two or three days after treatment. At the end of the administration period, the animals were euthanized by dislocation, and the tumor bulks were peeled off conforming to the Guide for the Animal use and Management of Shanghai Medicilon Biological Medicine Co. Ltd. The tumor volume was calculated according to the Principles of Non-clinical Research Techniques for Anti-tumor Drugs of Cytotoxic Drugs by China Food and Drug Administration.

[7] = 2 mg/kg iv, listed as Compound 15p
[8] = 4 mg/kg iv, listed as Compound 15p

Plasma stability [4]: very stable | Clearance by liver microsomes ([5]; NADPH): quickly cleared by liver microsomes | Total clearance (CL) at 1 μmol/L ([5]; Wistar, rat, rat liver microsomes, rat liver microsomes 0.5 mg/mL, 1 μmol/L): 80.6 mL/min/kg | CLint scaled at 1 μmol/L ([5]; Wistar, rat, rat liver microsomes, rat liver microsomes 0.5 mg/mL, 1 μmol/L, read-out: CLint (intrinsic clearance)): 772 mL/min/kg | half-life at 1 μmol/L ([5]; Wistar, rat liver microsomes 0.5 mg/mL, 1 μmol/L): 7.07 min | melting point: 200 to 202 °C
SMILES: C=CCn1cnc(/C=c2\[nH]c(=O)/c(=C/c3cccc(C(=O)c4ccc(F)cc4)c3)[nH]c2=O)c1C(C)C [15p]
IC50 [1]: 1.03 ± 0.18 nM | IC50 [2]: 0.81 ± 0.02 nM | IC50 [3]: 0.67 ± 0.064 nM | Tumor Volume (D15) ([6]; 2 mg/kg iv): 1453.6 mm^3 | Tumor Volume (D15) [6, 7]: 1453.6 ± 909.5 mm^3 | Tumor Volume (D1) ([6]; 2 mg/kg iv): 103.7 ± 29.99 mm^3 | Tumor Weight ([6]; 2 mg/kg iv): 0.82 g | Tumor Weight [6, 7]: 0.82 ± 0.47 g | IR (tumor weight inhibition rate) ([6]; 2 mg/kg iv): 27.6% | Tumor Volume (D15) ([6]; 4 mg/kg iv): 674.5 mm^3 | Tumor Volume (D15) [6, 8]: 674.5 ± 274.0* mm^3 | Tumor Volume (D1) ([6]; 4 mg/kg iv): 102.2 ± 28.62 mm^3 | Tumor Weight ([6]; 4 mg/kg iv): 0.39 g | Tumor Weight [6, 8]: 0.39 ± 0.22 g | IR (tumor weight inhibition rate) ([6]; 4 mg/kg iv): 65% | IR (tumor weight inhibition rate) [6, 8]: 65.2%
